In general, IC50 refers to the concentration at which inhibition is half-maximal.

Test [1] has as its target T1, 3-oxo-5-alpha-steroid 4-dehydrogenase 2 (Homo sapiens, UniProt P31213).
T1 sequence (P31213 whole entry): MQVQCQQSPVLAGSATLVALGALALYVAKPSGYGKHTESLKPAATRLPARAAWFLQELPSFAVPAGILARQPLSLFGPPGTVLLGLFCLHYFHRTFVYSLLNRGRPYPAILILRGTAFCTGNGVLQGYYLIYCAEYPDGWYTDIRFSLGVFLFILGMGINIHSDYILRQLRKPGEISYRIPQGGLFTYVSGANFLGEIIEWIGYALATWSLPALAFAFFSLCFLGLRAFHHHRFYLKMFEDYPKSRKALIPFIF
Nature of the test: Inhibition of human prostate 5alpha-reductase type 2 assessed as formation dihydrotestosterone from [4-14C] testosterone. Format: tissue-based, Prostate gland.

In test [2] the target is T2, 3-oxo-5-alpha-steroid 4-dehydrogenase 2 (Homo sapiens) (UniProt P31213).
T2 sequence (whole entry): T1 sequence (P31213 whole entry)
Nature of the test: Inhibition of human prostate 5alpha-reductase type 2 assessed as formation dihydrotestosterone from [4-14C] testosterone relative to finasteride. As to conditions: Prostate gland.

Structures are written as SMILES.

With `CC(C)(C)NC(=O)[C@H]1CC[C@H]2[C@@H]3CC[C@H]4NC(=O)C=C[C@]4(C)[C@H]3CC[C@]12C` [FINASTERIDE], in test [1], the IC50 worked out at 0.035 µM.

For the compound `C[C@]12CC[C@@H]3c4ccc(O)cc4CC[C@H]3[C@@H]1CCC(=O)N2`, the IC50 in test [1] was above 1 µM. Besides, the Ratio in test [2] is below 0.055.

`C[C@]12CC[C@@H]3c4ccc(OS(=O)(=O)O)cc4CC[C@H]3[C@@H]1CCC(=O)N2`: in test [1], the IC50 was above 1 µM. Besides, the Ratio in test [2] is below 0.055.

In the case of `C[C@]12CCC(C(=O)O)=CC1=CC[C@@H]1[C@@H]2CC[C@]2(C)NC(=O)CC[C@@H]12`, the IC50 in test [1] was 0.071 µM. For the same compound, the Ratio in test [2] was 0.49.

For the origin of these results see ChEMBL document CHEMBL1641415, “Discovery of a novel hybrid from finasteride and epristeride as 5α-reductase inhibitor” (Bioorg Med Chem Lett, 2011).
